Tested on: translocation of STAT6(B) and LITAF in mouse macrophages
Assay: Western blot after kinase inhibitor pretreatment plus LPS stimulation (FIG. 13)
Type: cell-based
Conditions: pretreatment before LPS stimulation
Source text: It is well known that STAT family members share two major domains, oligomerization and Src homology 2 (SH2), for phosphorylation by Janis kinases (Jaks) that facilitate dimerization of STAT proteins and subsequent translocation into the nucleus (Gallmeier, et al., J Cell Physiol, 203:209-216, 2005; Chen, et al., J Allergy Clin Immunol, 114:476-489, 2004, Tang, et al., PNAS USA, 102:5132-5137, 2005). […] In this Western blot, cells were pretreated with various kinase inhibitors (FIG. 13a) before LPS stimulation.

## C[S+]([O-])c1ccc(-c2nc(-c3ccncc3)c(-c3ccc(F)cc3)[nH]2)cc1 (stereo not drawn) [SB203580]
  TNF-α protein levels compared to cells exposed to LPS only: suppression
Western blot
  LITAF and STAT6(B) expression in the nucleus: substantially reduced
  whole cell extract LITAF and STAT6(B) expression: unchanged

— patent US20090062190A1, “Transcriptional Regulation of Cytokines by LITAF and STAT (6)(B)” (priority 2005, published 2009)
